Laboratory results taken from ChEMBL document CHEMBL1153679, “Structural requirements for biological activity of the marine alkaloid ascididemin” (Bioorg Med Chem Lett, 1995).
In brackets after ≈: the same amount, converted by molar mass.

Experiments:
[1] = test system: Bacillus subtilis; test: Antimicrobial activity against gram positive Bacillus subtilis at a dose of 120 ug; type: functional
[2] = test system: Trichophyton benhamiae; test: Antimicrobial activity against Trichophyton mentagrophytes fungus at a dose of 120 ug; type: functional
[3] = test system: Candida albicans; test: Minimum inhibitory concentration against Candida albicans fungus at a dose of 120 ug; type: functional
[4] = test system: P388; test: In vitro cytotoxic activity against mouse leukemia (P388 ) cell line; type: functional, cell-based
[5] = test system: Escherichia coli; test: Antimicrobial activity against gram negative Escherichia coli at a dose of 120 ug; type: functional
[6] = test system: Pseudomonas aeruginosa; test: Antimicrobial activity against gram negative Pseudomonas aeruginosa at a dose of 120 ug; type: functional
[7] = test system: Amorphotheca resinae; test: Antimicrobial activity against Cladosporium resinae fungus at a dose of 120 ug; type: functional
[8] = test system: MCF7; test: In vitro cytotoxic activity against human breast (MCF-7) cell line; type: functional, cell-based
[9] = test system: HCT-116; test: In vitro cytotoxic activity against human colon (HCT116) cell line; type: functional, cell-based
[10] = test system: CHO; test: Hypersensitivity Factor (HF2) towards DNA-double strand break repair deficient Chinese Hamster Ovary (CHO) cell-line EM9 versus wild type BR1([…]); type: functional, Cricetulus griseus
[11] = test system: Candida albicans; test: Antimicrobial activity against Candida albicans fungus at a dose of 120 ug; type: functional
[12] = test system: Candida albicans; test: Minimum inhibitory concentration against Candida albicans fungus at a dose of 120 microg; type: functional
[13] = test system: CHO; test: Hypersensitivity Factor(HF) towards DNA-double strand break repair deficient Chinese Hamster Ovary (CHO) cell-line xrs-6 versus wild type BR1(IC50 BRI/IC50 xrs-6); type: functional, Cricetulus griseus
[14] = test system: CHO; test: In vitro cytotoxic activity against DNA-double strand break repair deficient Chinese Hamster Ovary (CHO) cell-line xrs-6; type: functional, cell-based; settings: Cricetulus griseus
[15] = test system: CHO; test: In vitro cytotoxic activity against DNA-double strand break repair deficient Chinese Hamster Ovary (CHO) cell-line EM9; type: functional, cell-based; settings: Cricetulus griseus
[16] = test system: Candida albicans; test: Antimicrobial activity against Candida albicans fungus at a dose of 120 microg; type: functional
[17] = test system: CHO; test: In vitro cytotoxic activity towards DNA-double strand break repair deficient Chinese Hamster Ovary (CHO) cell-line EM9; type: functional, cell-based; settings: Cricetulus griseus
[18] = test system: BSC-1; test: In vitro cytotoxic activity against non-malignant african green monkey kidney cell-line (BSC-1); ranges from 4.5-5 mm; type: functional, Cercopithecidae
[19] = test system: CHO; test: Hypersensitivity Factor(HF) against DNA-double strand break repair deficient Chinese Hamster Ovary (CHO) cell-line xrs-6 versus wild type BR1(IC50 BRI/IC50 xrs-6); type: functional, Cricetulus griseus
[20] = test system: BSC-1; test: In vitro cytotoxic activity against non-malignant african green monkey kidney cell-line (BSC-1); ranges from 3.5-4.5 mm; type: functional, Cercopithecidae

MIC [3] | MIC [12] | SMILES | Excess zone radius [1] | Excess zone radius [2] | IC50 [4] | Excess zone radius [5] | Excess zone radius [6] | Excess zone radius [7] | IC50 [8] | IC50 [9] | HF2 [10] | Excess zone radius [11] | HF [13] | IC50 [14] | IC50 [15] | Excess zone radius [16] | IC50 [17] | Excess zone radius [18] | HF [19] | Excess zone radius [20]
25 µg/mL (≈ 91.5 µM) | – | Cc1c2c(nc3ccccc13)C(=O)c1ccccc1C2=O | 3 mm | 0 mm | 39000 nM | 0 mm | 0 mm | 0 mm | – | – | – | – | – | – | – | – | – | – | – | –
– | 0.39 µg/mL (≈ 1.38 µM) | O=C1c2ccccc2-c2nccc3c2c1nc1ccccc13 [BENZOSAMPANGINE] | 8 mm | 10 mm | 1600 nM | 0 mm | 0 mm | 0 mm | > 350000 nM | > 350000 nM | 0.2 | 12 mm | 1 | 18000 nM | 18000 nM | – | – | – | – | –
– | – | O=C1c2cccnc2-c2nccc3c2c1nc1ccccc13 [ASCIDIDEMIN] | 14 mm | 0 mm | 400 nM | 10 mm | 0 mm | 10 mm | 300 nM | 300 nM | 1 | – | – | 30 nM | – | 11 mm | 300 nM | 4.5 mm | 10 | –
– | – | Cc1c2c(nc3ccccc13)C(=O)c1cccnc1C2=O | 10 mm | 0 mm | 56000 nM | 0 mm | 0 mm | 6 mm | – | – | – | 1 mm | – | – | – | – | – | – | – | 3.5 mm
